One compound from patent US20120237482A1, “METHODS FOR TREATMENT OF NEUROLOGICAL DISORDERS BY MODULATION OF MICROGLIAL ACTIVATION” (priority 2011, published 2012) can be followed below.

The data set is described as follows: Case report: with autism given ibuprofen for children during a 7-day fever. It counts as in vivo, human. The following applies: one child, ibuprofen about 30-40 mg/kg throughout 7 days. An excerpt:
Subject […] was born […], and developed normally until reaching […] (the “regression time”). […] The […] developed autistic symptoms after the regression time, such as ceasing to respond to their name and losing the skills they had attained so far as their neurological health progressively deteriorated. At or about the same time of the regression time, the […] also developed other medical problems including Vitiligo. After an evaluation, a therapist from the Early Child Intervention Program advised the parents that the child had red flags for autism. Following a viral and bacterial infection […], the […]'s autistic symptoms became severe. The […] was officially diagnosed with autism by a developmental pediatrician, and qualified for the Preschool Program for Children With Disabilities (PPCD). While in the PPCD program, the […] was evaluated by a speech therapist who diagnosed them with severe speech impairments. A video of the child showing severe autistic symptoms is available at http://www.youtube.com/watch?v=GbEeNJgaIQQ. When the child turned […] they developed another viral infection and developed a high fever that lasted over 7 days. […] They were more aware, calm and was saying more words. […] Gastrointestinal problems caused by the ibuprofen soon surfaced, however. […]

Take `CC(C)Cc1ccc(C(C)C(=O)O)cc1` (centres unmarked) [ibuprofen]: the “autistic symptoms while under ibuprofen” value (autism, viral infection with fever) was “autistic symptoms decreased”. Also, the “gastrointestinal side effects of ibuprofen” value (little food intake) is “gastrointestinal lesions and ulcers caused by the ibuprofen”.
